Results as given in patent publication US11214803B2, “Modulators of YAP1 expression” (Ionis Pharmaceuticals, Inc., priority 2019, dated 2022).
Strand notation (5' to 3'): a small letter for the sugar, then the base; units joined by * are phosphorothioate-linked, units joined directly phosphodiester-linked; [ ] holds rarer units or linkages, { } end groups; capitals alone tell only the bases. e = 2'-O-(2-methoxyethyl) (MOE); k = constrained ethyl (cEt); [5mC] = 5-methylcytosine; d = 2'-deoxy (DNA); m = 2'-O-methyl

Test system: Yap1 mRNA
Experiment: Antisense inhibition of human Yap1 in SNU-449 cells by modified oligonucleotides, single dose (Example 5, RTS36584)
Format: cell-based
Settings: Table 39; SNU-449 cells, 10,000 cells per well, free uptake, 2,000 nM oligonucleotide, approx. 48 hours; RTS36584; normalized to RIBOGREEN; Yap1 mRNA relative to untreated control
Procedure, shortened: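 Plate SNU-449 cells at 10,000 per well; add 2,000 nM modified oligonucleotide without transfection reagent; after ~48 h isolate RNA, run qRT-PCR with RTS36584, normalise to RIBOGREEN and report % UTC.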

Substance	YAP1 (% UTC)
1198436 (kT*dA*dT*dG*dT*dA*dA*dT*dA*dT*dT*kG*e[5mC]*kA*eA*kT; antisense) [Compound 1198436]	69

Same assay, conditions: Table 40 (separate experiment); SNU-449 cells, 10,000 cells per well, free uptake, 2,000 nM oligonucleotide, approx. 48 hours; RTS36584; normalized to RIBOGREEN; Yap1 mRNA relative to untreated control

Substance	YAP1 (% UTC)
1198766 (kT*e[5mC]*kA*dG*dA*dT*dT*dT*dA*dG*dG*dA*eT*eG*k[5mC]*kA; antisense) [Compound 1198766]	19
1198796 (antisense kA*eG*kT*dA*dA*dG*dG*dT*dT*dT*d[5mC]*d[5mC]*e[5mC]*eA*kG*kA) [Compound 1198796]	32
1198765 (k[5mC]*eA*kG*dA*dT*dT*dT*dA*dG*dG*dA*dT*eG*e[5mC]*kA*kT) [Compound 1198765]	23
1198727 (kA*eT*kT*dA*dG*dA*dG*dT*dA*dT*dG*dT*eG*eG*k[5mC]*kA; antisense) [Compound 1198727]	19
1198758 (kA*eT*kA*dG*dT*dG*d[5mC]*dT*dT*dT*dG*dG*eA*eA*kG*kA; antisense) [Compound 1198758]	47

Same assay, conditions: Table 41; SNU-449 cells, 10,000 cells per well, free uptake, 2,000 nM modified oligonucleotide, approximately 48 hours; RTS36584; normalized to RIBOGREEN; Yap1 mRNA relative to untreated control cells

Substance	YAP1 (% UTC)
1198738 (kA*e[5mC]*kT*dG*dA*dG*dG*dT*dA*dT*dA*dA*e[5mC]*eT*kG*kG; antisense) [Compound 1198738]	38
1198664 (antisense kG*k[5mC]*dT*dT*dT*dG*dG*dA*dA*dG*dA*dT*k[5mC]*eT*kG*eA) [Compound 1198664]	18
1198788 (antisense kA*eA*kG*dT*dG*dT*dA*dT*dG*dT*d[5mC]*dA*eG*eA*kA*kG) [Compound 1198788]	17
1198734 (kA*eG*kG*dT*dA*dT*dA*dA*d[5mC]*dT*dG*dG*eG*e[5mC]*kA*kA; antisense) [Compound 1198734]	29
1198776 (kG*eA*k[5mC]*dA*dA*d[5mC]*dT*d[5mC]*dT*dT*dA*dT*eA*eT*kG*kG) [Compound 1198776]	57

Same assay, conditions: Table 42 (separate experiment); SNU-449 cells, 10,000 cells per well, free uptake, 2,000 nM modified oligonucleotide, approximately 48 hours; RTS36584; normalized to RIBOGREEN; Yap1 mRNA relative to untreated control cells

Substance	YAP1 (% UTC)
1198698 (antisense kA*kA*dG*dT*dG*dT*dA*dT*dG*dT*d[5mC]*dA*kG*eA*kA*eG) [Compound 1198698]	12
1198686 (antisense kG*kA*d[5mC]*dA*dA*d[5mC]*dT*d[5mC]*dT*dT*dA*dT*kA*eT*kG*eG) [Compound 1198686]	78
1198239 (kA*kG*dG*dA*dT*dG*d[5mC]*dA*dT*dG*dG*eT*eT*eT*kT*kT) [Compound 1198239]	39
1198650 (kA*kA*d[5mC]*dA*d[5mC]*dT*dG*dA*dG*dG*dT*dA*kT*eA*kA*e[5mC]) [Compound 1198650]	88

Same assay, conditions: Table 43 experiment; SNU-449 cells, 10,000 cells per well, free uptake, 2,000 nM, approximately 48 hours; RTS36584; Yap1 mRNA normalized to RIBOGREEN, relative to untreated control cells

Substance	YAP1 (% UTC)
1198471 (antisense kA*kT*dA*dT*dT*dA*dG*dA*dG*dT*dA*eT*kG*eT*kG*eG) [Compound 1198471]	21
1198260 (kT*kA*dA*dT*dA*dT*dT*dG*d[5mC]*dA*dA*eT*e[5mC]*eT*kG*kT; antisense) [Compound 1198260]	106
1198283 (kT*kT*dA*dG*dA*d[5mC]*dT*dA*dA*dG*dT*eA*eA*eG*kG*kT; antisense) [Compound 1198283]	99
1198460 (antisense kG*kA*dA*dA*dT*dT*dG*dT*d[5mC]*dT*d[5mC]*eA*kT*eG*k[5mC]*e[5mC]) [Compound 1198460]	17
1198247 (kA*kT*dT*d[5mC]*dA*dG*dA*dT*dT*dT*dA*eG*eG*eA*kT*kG; antisense) [Compound 1198247]	99
1198463 (antisense kA*kT*dG*dG*dA*dA*dA*dT*dT*dG*dT*e[5mC]*kT*e[5mC]*kA*eT) [Compound 1198463]	59

Same assay, conditions: Table 44 experiment; SNU-449 cells, 10,000 cells per well, free uptake, 2,000 nM, approximately 48 hours; RTS36584; Yap1 mRNA normalized to RIBOGREEN, relative to untreated control cells

Substance	YAP1 (% UTC)
1198491 (antisense k[5mC]*kT*dT*dT*dG*dG*dA*dA*dG*dA*dT*e[5mC]*kT*eG*kA*eA) [Compound 1198491]	22
1198538 (kA*k[5mC]*dT*dA*dA*dG*dT*dA*dA*dG*dG*eT*kT*eT*k[5mC]*e[5mC]; antisense) [Compound 1198538]	29

Same assay, conditions: Table 45; Yap1 mRNA as percent of untreated control, SNU-449 cells, single dose

Substance	YAP1 (% UTC)
1198934 (kA*kT*dT*dT*dA*dG*dG*dA*dT*dG*d[5mC]*kA*dT*kG*dG*kT; antisense) [Compound 1198934]	56
1198942 (k[5mC]*kT*dT*dA*dT*dA*dT*dG*dG*dT*dT*kT*dT*kG*dT*kG; antisense) [Compound 1198942]	42
1198925 (k[5mC]*kT*dT*dT*dG*dG*dA*dA*dG*dA*dT*k[5mC]*dT*kG*dA*kA; antisense) [Compound 1198925]	52
1198937 (k[5mC]*kA*dG*dA*dT*dT*dT*dA*dG*dG*dA*kT*dG*k[5mC]*dA*kT; antisense) [Compound 1198937]	48
1198963 (kT*kT*dA*dA*dA*dG*dT*dG*dT*dA*dT*kG*dT*k[5mC]*dA*kG; antisense) [Compound 1198963]	27

Same assay, conditions: Table 46; Yap1 mRNA as percent of untreated control, SNU-449 cells, single dose

Substance	YAP1 (% UT)
1198817 (antisense kA*kT*dT*dA*dG*dA*dG*dT*dA*dT*dG*kT*eG*kG*e[5mC]*kA) [Compound 1198817]	AksTksTdsAdsGdsAdsGdsTdsAdsTds43 % UT
1198889 (kT*kT*dA*dG*dA*d[5mC]*dT*dA*dA*dG*dT*kA*eA*kG*eG*kT; antisense) [Compound 1198889]	27 % UT
1198847 (kT*kT*dT*dA*dG*dG*dA*dT*dG*d[5mC]*dA*kT*eG*kG*eT*kT; antisense) [Compound 1198847]	51 % UT
1198825 (kG*kA*dG*dG*dT*dA*dT*dA*dA*d[5mC]*dT*kG*eG*kG*e[5mC]*kA; antisense) [Compound 1198825]	64 % UT
1198870 (kT*kA*dT*dG*dT*dA*dA*dT*dA*dT*dT*kG*e[5mC]*kA*eA*kT; antisense) [Compound 1198870]	86 % UT
1198885 (k[5mC]*kT*dA*dA*dG*dT*dA*dA*dG*dG*dT*kT*eT*k[5mC]*e[5mC]*k[5mC]; antisense) [Compound 1198885]	41 % UT
1198845 (kA*kG*dG*dA*dT*dG*d[5mC]*dA*dT*dG*dG*kT*eT*kT*eT*kT; antisense) [Compound 1198845]	43 % UT

Same assay, conditions: Table 48; Yap1 mRNA level relative to untreated control; modified oligonucleotides targeting SEQ ID NO.: 1 and 2

Substance	YAP1 (% UT)
1198324 (kA*kT*kA*dG*dT*dG*d[5mC]*dT*dT*dT*dG*dG*kA*eA*kG*eA; antisense) [Compound 1198324]	53

Same assay, conditions: Table 49; Yap1 mRNA level relative to untreated control; modified oligonucleotides targeting SEQ ID NO.: 1 and 2

Substance	YAP1 (% UT)
1198338 (k[5mC]*kT*k[5mC]*dT*dT*dA*dT*dA*dT*dG*dG*dT*kT*eT*kT*eG; antisense) [Compound 1198338]	24

Same assay, conditions: Table 50; Yap1 mRNA remaining as percent of untreated control (UT), SNU-449 cells, single dose

Substance	YAP1 (% UT)
1197287 (kT*kA*kT*dA*mU*dT*dA*dG*dA*dG*dT*dA*dT*kG*kT*kG) [Compound 1197287]	108
1197230 (antisense kT*kG*kG*dA*mA*dA*dT*dT*dG*dT*d[5mC]*dT*d[5mC]*kA*kT*kG) [Compound 1197230]	29
1198587 (antisense kG*kA*kT*dT*dT*dA*dG*dG*dA*dT*dG*d[5mC]*kA*kT*kG*eG) [Compound 1198587]	41
1198563 (antisense kG*kA*kG*dG*dT*dA*dT*dA*dA*d[5mC]*dT*dG*kG*kG*k[5mC]*eA) [Compound 1198563]	53
1197247 (antisense kA*kA*kG*d[5mC]*mA*d[5mC]*dT*dT*dT*dT*dA*d[5mC]*dA*kT*kT*kA) [Compound 1197247]	47

Same assay, conditions: Table 51; Yap1 mRNA remaining as percent of untreated control (UT), SNU-449 cells, single dose

Substance	YAP1 (% UT)
1197238 (antisense kA*kG*kG*dT*mA*dT*dA*dA*d[5mC]*dT*dG*dG*dG*k[5mC]*kA*kA) [Compound 1197238]	43
1197239 (antisense kT*kG*kA*dG*mG*dT*dA*dT*dA*dA*d[5mC]*dT*dG*kG*kG*k[5mC]) [Compound 1197239]	47
1200796 (kT*kT*kA*dG*dA*mG*dT*dA*dT*dG*dT*dG*dG*k[5mC]*kA*kA; antisense) [Compound 1200796]	15
1197297 (GTGCUTTGGAAGATCT; cEt/MOE gapmer, phosphorothioate, 5-methylcytosine, chemistry not fully specified) [Compound 1197297]	25

Same assay, conditions: Table 52; Yap1 mRNA, modified oligonucleotides targeting SEQ ID NO: 1 and 2

Substance	YAP1 (% UT)
1200841 (kT*k[5mC]*kT*dT*dA*mU*dA*dT*dG*dG*dT*dT*dT*kT*kG*kT; antisense) [Compound 1200841]	76

Same assay, conditions: Yap1 mRNA, percent of untreated control; modified oligonucleotides targeting SEQ ID NO: 1 and 2; Table 47

Substance	YAP1 (% UT)
1009327 (kA*kT*kA*dT*dT*dA*dG*dA*dG*dT*dA*dT*dG*kT*kG*kG; antisense) [Compound 1009327]	27
1198862 (kG*kA*d[5mC]*dA*dA*d[5mC]*dT*d[5mC]*dT*dT*dA*kT*eA*kT*eG*kG; antisense) [Compound 1198862]	72
